Laboratory results: patent US12486214B2, “Rosmarinic acid derivative, Rosmarinic acid-derived particles, composition containing same for treating inflammatory disease” (KOREA ADVANCED INSTITUTE OF SCIENCE AND TECHNOLOGY, priority 2020, dated 2025)
Read-outs that look alike come from different tables or passages of the source.

What was measured:
[1] = tested on: inflammatory bowel disease model mice; test: Effect of oral HA-RANPs (and HA, RA, 5-ASA) on inflammatory bowel disease model mice (3% DSS); assay type: in vivo; conditions: 5 times: HA-RANPs 100 mg/kg, HA 85 mg/kg, RA 15 mg/kg, 5-ASA 100 mg/kg
Experimental: To investigate the antiinflammatory therapeutic efficacy of HA-RANPs in inflammatory bowel disease model mice, the present inventors performed the following tests. By using the inflammatory bowel disease model in which 3% DSS and drinking water were administered to mice (C57BL/6, 6 weeks old, female, 7-day acclimatization) for 5 days, three dose concentrations (20, 50, and 100 mg/kg) of HA-RANPs were orally administered for 5 days (D+1 to D+5, one time/day) for a total of 5 times. The degree of disease progression and the antiinflammatory effect of HA-RANPs were examined through weight changes (measured daily) of all groups of mice and the extraction and tests of the large intestine on the last day.
In addition, the myeloperoxidase (MPO) activity and inflammatory cytokine expression were examined through ELISA assay. Specifically, the same portion of each mouse colon sample was cut, pre-treated, and minced, and then a predetermined amount thereof was centrifuged to obtain a supernatant, and thereafter, the supernatant was subjected to the following assay. The MPO activity is an index to evaluate the infiltration of neutrophils into the inflamed tissue. The measurement of MPO activity is disclosed in Grisham et al. (1990) or the like.
The change in extent of inflammation in the colon was investigated by histopathological examination, that is, examining the degrees of structural integrity loss, crypt destruction, and mucosal surface changes.
The present inventors evaluated the effect of the HA-RANPs of the present disclosure on inflammatory bowel disease model mice through the comparison with HA and RA. The inflammatory bowel disease model was induced by the same method as in the above-described experiment, wherein 100 mg/kg of HA-RANPs as a drug and the equal amounts of Free HA (85 mg/kg), RA (15 mg/kg), and 5-amino salicylic acid (5-ASA) (100 mg/kg) as positive drug controls were administered orally (a total of 5 times, one time/day, D+1 to D+5).

[2] = Particle size, zeta potential and morphology (DLS/PCS, TEM); assay type: physicochemical
Experimental: PEG-RA (20 mg) was dissolved in 4 mL of a 1:3 mixture (v/v) of chloroform:methanol and mixed for several minutes. The organic solvent was then removed by rotary vacuum evaporation and was further dried under a nitrogen flow for 30 minutes to yield a film layer. The film layer was suspended in 1 mL of PBS (137 mM NaCl, 2.7 mM KCl, 10 mM Na2HPO4, 2 mM KH2PO4, pH 7.4) and the resulting micelle suspension was sonicated in a bath sonicator (50 W, 40 kHz) for 10 minutes to yield uniform-sized RANPs. The micelle solution was maintained at 4° C., and directly used in the experiments below. The particle size of RANPs was analyzed by photon correlation spectroscopy (PCS) using a Nanosizer ZS90 (Malvern Instrument Ltd., Malvern, UK) equipped with 4.0 mW HeNe laser and an avalanche photodiode detector operating at 633 nm. Zeta potential was also measured at 25° C. in aqueous solutions (pH 7) by using the same equipment. The morphological characteristics of RANPs were examined using negative-staining transmission electron microscopy (TEM). Briefly, a drop of the diluted sample was placed on copper grids coated with a carbon film, stained with 0.5% w/v uranyl acetate solution, and dried at room temperature. The grids were imaged using a Tecnai F20 (FEI Co., Hillsboro, OR, USA) transmission electron microscope. […]
The hydrodynamic size and zeta potential of RANPs in phosphate buffer solution (pH 7.4), measured by dynamic light scattering (DLS), were 67.5±3.5 nm and −33.70 mV, respectively, indicating the exposure of the PEG layer on the surface of nanoparticles (FIG. 1C and Table 1).
The product was then analyzed through UV-Vis spectrometry using Beckman Coulter DU-800 UV-Vis spectrometer. The particle size of the HA-RA nanoparticles was obtained by measuring the hydrodynamic size of HA-RA nanoparticles in phosphate buffer solution (pH 7.4), measured by dynamic light scattering (DLS). […]
The LMWC-RA of the present disclosure was prepared into nanoparticles by the method shown in Example 8, and then the hydrodynamic size and zeta potential value thereof were measured.

[3] = Solubility in distilled water or DMSO; assay type: physicochemical
[4] = free RA, rats, intravenous 0.625 mg/kg; cited from earlier work
[5] = in vivo; cited from earlier work

Compound | MPO activity and pro-inflammatory cytokine levels [1] | body weight loss and colon length shortening on day 10 [1] | colon histopathology (H&E stained biopsy) [1] | expression of tight junction-related genes ZO-1, claudin-1, and occludin in colon [1] | Conductivity [2] [mS/cm] | Mobility [2] [μm cm/Vs] | Zeta potential [2] [mV] | solubility ([3]; DMSO, organic solvent or mixture, read-out: solubility in DMSO) [mg/mL] | dissolution in distilled water ([3]; at 5 mg/ml) | solubility ([3]; distilled water, water, read-out: solubility in distilled water) [mg/mL] | area under the curve (AUC) [4] [ng·h/mL] | circulation (or elimination) half-life (t1/2) [4] [min] | mean residence time (MRT) [4] [min] | time within which RA is usually excreted from the body [5] [min]
Nc1ccc(O)c(C(=O)O)c1 [5-ASA, 5-amino salicylic acid] | somewhat relieved | significantly low | slightly relieved | improved | – | – | – | – | – | – | – | – | – | –
O=C(/C=C/c1ccc(O)c(O)c1)O[C@H](Cc1ccc(O)c(O)c1)C(=O)O [Rosmarinic acid (RA), rosmarinic acid] | somewhat relieved | slight efficacy | slightly relieved | improved | 24.10 | −1.217 | −15.53 | ≤ 25 | only partially dissolved | ≤ 0.041 | 4090 | 42.9 | 50.1 | ≤ 30
